The values that follow are results of earlier work, collected in US20210315250A1, “COMBINATION BROAD-SPECTRUM ANTIVIRAL NATURAL EXTRACT SUPPLEMENTS” (priority 2020, published 2021).

Some targets named below: SARS-CoV 3CL (Severe acute respiratory syndrome coronavirus, UniProt P0C6X7); viral S protein (Severe acute respiratory syndrome coronavirus 2, UniProt P0DTC2); ACE2 receptor (Homo sapiens, UniProt Q9BYF1).
In data set [1] the test system is docking site for SARS-CoV-2.

Chain of ACE2 receptor (Q9BYF1 18-805): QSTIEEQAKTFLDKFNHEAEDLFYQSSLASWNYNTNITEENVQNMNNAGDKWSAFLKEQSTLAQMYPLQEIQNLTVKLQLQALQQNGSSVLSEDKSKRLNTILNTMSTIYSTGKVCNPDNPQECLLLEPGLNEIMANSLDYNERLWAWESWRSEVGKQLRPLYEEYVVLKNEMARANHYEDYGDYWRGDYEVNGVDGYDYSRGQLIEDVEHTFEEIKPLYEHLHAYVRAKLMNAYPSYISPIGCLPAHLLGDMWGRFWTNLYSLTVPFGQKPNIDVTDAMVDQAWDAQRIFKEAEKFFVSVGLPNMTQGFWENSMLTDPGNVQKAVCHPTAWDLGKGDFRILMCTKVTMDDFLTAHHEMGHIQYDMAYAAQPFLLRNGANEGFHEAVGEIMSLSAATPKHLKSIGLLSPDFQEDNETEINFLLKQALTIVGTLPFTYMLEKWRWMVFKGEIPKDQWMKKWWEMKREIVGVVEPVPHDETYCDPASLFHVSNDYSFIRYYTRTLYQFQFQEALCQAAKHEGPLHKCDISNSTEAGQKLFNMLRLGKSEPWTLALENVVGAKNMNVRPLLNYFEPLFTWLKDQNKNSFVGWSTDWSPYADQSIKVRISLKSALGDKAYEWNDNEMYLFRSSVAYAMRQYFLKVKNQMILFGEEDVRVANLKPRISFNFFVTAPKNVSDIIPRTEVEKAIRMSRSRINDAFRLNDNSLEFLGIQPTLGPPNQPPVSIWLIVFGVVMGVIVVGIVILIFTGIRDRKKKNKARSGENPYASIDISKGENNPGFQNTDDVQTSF

For `C[C@@H]1O[C@@H](O[C@H]2[C@H](Oc3cc(O)c4c(=O)cc(-c5ccc(O)cc5)oc4c3)O[C@H](CO)[C@@H](O)[C@@H]2O)[C@H](O)[C@H](O)[C@H]1O` [rhoifolin], the “binding to SARS-CoV 3CL” value on SARS-CoV 3CL is on record as “bind”.

In the case of `CC(=O)C=O` [Methylglyoxal], the “inhibition of viruses, in particular influenza” value in the data set with influenza is recorded as “inhibit”.

As to `COc1cc(/C=C/C(=O)CC(=O)/C=C/c2ccc(O)c(OC)c2)ccc1O` [Curcumin], the “interaction with viral S protein docking site” value on viral S protein is listed as “interact”. Besides, the “interaction with ACE2 receptor docking site” value on ACE2 receptor is recorded as “interact”.

Take `C/C=C/c1ccc(OC)cc1` [Trans-anethole]: in the data set on HSV-1, the “inhibition of HSV-1” value is “inhibit”.

With caryophyllene, in the data set on HSV-1, the “inhibition of HSV-1” value is reported as “inhibit”.

Consider `COc1ccc(-c2cc(=O)c3c(O)c(OC)c(O[C@@H]4O[C@H](CO[C@@H]5O[C@@H](C)[C@H](O)[C@@H](O)[C@H]5O)[C@@H](O)[C@H](O)[C@H]4O)cc3o2)cc1` [pectolinarin], for which, at SARS-CoV 3CL, the “binding to SARS-CoV 3CL” value is reported as “bind”.

With `O=c1cc(-c2ccc(O)c(O)c2)oc2cc(O)cc(O)c12` [Luteolin], the “inhibition of the docking site for SARS-CoV 3CL” value at SARS-CoV 3CL is “inhibit”.

In the case of `O=c1c(O)c(-c2ccc(O)cc2)oc2c(O)c(O)cc(O)c12` [herbacetin], the “binding to SARS-CoV 3CL” value on SARS-CoV 3CL is “bind”.

Take `O=c1c(O)c(-c2cc(O)c(O)c(O)c2)oc2cc(O)cc(O)c12` [Myricetin]: in data set [1], the “inhibition of the docking site for SARS-CoV-2” value was “inhibit”.

For the molecule `CCCCCCCCCCCCCC(=O)O` [myristic acid], in the data set with HIV, the “inhibition of HIV” value is recorded as “inhibit”. The “inhibition of SVS” value in the data set on SVS was “inhibit”.

For `O=C1OC[C@H](Cc2ccc3c(c2)OCO3)/C1=C\c1ccc2c(c1)OCO2` [Savinin], the “inhibition of the docking site for SARS-CoV 3CL” value on SARS-CoV 3CL is on record as “inhibit”.
